Activity calls are given as the source filed them.

As a reminder, the IC50 is the concentration needed to halve the response being measured. The AC50 is the concentration at which the activity in the assay is half-maximal.

Experiment [1] addresses T1, Sentrin-specific protease 8 (Homo sapiens, UniProt Q96LD8).
T1 sequence (Q96LD8 whole entry): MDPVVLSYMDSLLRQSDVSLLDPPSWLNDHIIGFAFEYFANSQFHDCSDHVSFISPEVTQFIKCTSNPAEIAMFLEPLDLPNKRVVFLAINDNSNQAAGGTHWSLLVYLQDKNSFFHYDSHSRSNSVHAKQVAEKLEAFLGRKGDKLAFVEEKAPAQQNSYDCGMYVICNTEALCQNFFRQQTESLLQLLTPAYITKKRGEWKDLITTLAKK
The class given is functional.

For the next experiment, the target named is Caspase-7 (Homo sapiens, UniProt P55210). The experiment can be described thus: caspase-7 enzyme inhibition, selectivity check – biochemical, DEVD-R110 fluorescence, cherry-pick, selectivity assay for caspase-6 inhibitor project, dose response (AID 743295). The class given is functional.
Sequence of Caspase-7 (P55210 24-198 limits assumed): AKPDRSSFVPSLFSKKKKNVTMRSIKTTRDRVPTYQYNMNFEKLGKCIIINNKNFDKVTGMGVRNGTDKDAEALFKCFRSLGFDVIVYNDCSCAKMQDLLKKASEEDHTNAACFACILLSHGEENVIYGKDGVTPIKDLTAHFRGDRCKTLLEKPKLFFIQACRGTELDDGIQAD
Sequence of Caspase-7 (P55210 207-303 limits assumed): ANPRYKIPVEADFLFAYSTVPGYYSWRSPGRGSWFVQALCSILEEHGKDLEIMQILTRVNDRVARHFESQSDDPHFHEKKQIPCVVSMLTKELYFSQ
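Wherever IC50 is given: luminescence read-out of SENP8 inhibition, dose-response confirmation following an ultra-high-throughput screen.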

As for `CN(CC(=O)Nc1ccccc1Cl)C(=O)COC(=O)c1ccc([N+](=O)[O-])s1`, the IC50 in experiment [1] is 3.95 µM (active). The AC50 at Caspase-7 was 20.6 µM (active).
